The source of these data is publication PMC5746379 (2017).

For assay [1], the system named is P2 (DNA, G4) GGGCGGGGAGGGGGG
Put plainly: fluorescence titration of M2 (emission shift Δλ). Particulars: excitation 345 nm; buffer not stated.

Assay [2] concerns P2 (DNA, G4) GGGCGGGGAGGGGGG
Nature of the assay: WaterLOGSY 1H NMR. Particulars: 298 K; water with 10% D2O.

Assay [3] deals with P1 (DNA, G4) GGGCGGTGGGAGGGGGGTGGTGGG
Put plainly: absorption, fluorescence titration, WaterLOGSY NMR. Particulars: buffer and highest concentration not stated.

Assay [4] has the same test system. Put plainly: CD melting. Particulars: 1:3 ratio P1-M2; Tm ~79 °C with and without M2; buffer not stated.

Take `CN(CCC#N)c1ccc(C=NCCCN=Cc2ccc(N(C)CCC#N)cc2)cc1`: in assay [1], the dissociation constant KD stood at 13.2 µM. The binding entry in assay [2] is recorded as “yes”; in assay [3], “no”; in assay [4] it was “no”.

Broadly, the KD is the constant that tells how readily two partners part at equilibrium.
